Values after ≈ are worked out from the molar mass of the structure shown. Values joined by “and” are separate entries in the source; they are usually repeats but may differ in a detail not shown here. Equal values may be shown once. Active and inactive are the calls of the source. The calls are words filed in the database; no cut-off is given here.
Columns and labels:
Cell membrane [1] = assay: Induction of cell membrane permeability in Staphylococcus aureus ATCC 25923 assessed as increase in fluorescence intensity incubated for 30 mins by PI staining based analysis; format: cell membranes
Staphylococcus aureus [2] = assay: Antibiofilm activity against Staphylococcus aureus ATCC 25923 assessed as inhibition of biofilm biomass at 100 uM incubated for 18 to 20 hrs by crystal violet staining based assay; format: functional; details: time 18-20 hrs
Staphylococcus aureus [3] = assay: Antibiofilm activity against Staphylococcus aureus ATCC 25923 assessed as reduction in biofilm biomass at 100 uM incubated for 18 to 20 hrs by crystal violet staining based assay; format: functional; parameters: scale not given: the % may be the effect or the level left; details: time 18-20 hrs
Staphylococcus aureus [4] = assay: Antibiofilm activity against Staphylococcus aureus ATCC 25923 assessed as inhibition of biofilm viability at 100 uM incubated for 18 to 20 hrs by resazurin staining based assay; format: functional; details: time 18-20 hrs
Staphylococcus aureus [5] = assay: Antibacterial activity against Staphylococcus aureus ATCC 25923 assessed as inhibition of bacterial growth at 40 uM incubated for 18 to 24 hrs by broth microdilution assay relative to control; format: functional; details: time 18-24 hrs
Staphylococcus aureus [6] = assay: Antibacterial activity against Staphylococcus aureus ATCC 25923 assessed as reduction in bacterial growth incubated for 18 to 20 hrs by broth microdilution assay; format: functional; details: time 18-20 hrs
[7] = Dissociation constant, pKa of compound; format: physicochemical
Staphylococcus aureus [8] = assay: Antibacterial activity against […] Staphylococcus aureus ATCC 43300 assessed as reduction in bacterial growth incubated for 18 to 20 hrs by broth microdilution assay; format: functional; details: time 18-20 hrs
[9] = Hemolytic activity in mouse RBC assessed as hemolysis at 250 uM incubated for 1 hr; format: toxicity, cell-based, Erythrocyte; details: mouse red blood cells (erythrocytes), read-out: Activity
Staphylococcus aureus [10] = assay: Antimicrobial activity against methicillin-resistant Staphylococcus aureus ATCC 43300 infected in Caenorhabditis elegans AU37 assessed as reduction in bacterial burden at 20 uM incubated for 18 hrs; format: functional; parameters: scale not given: the % may be the effect or the level left
Staphylococcus aureus [11] = assay: Antimicrobial activity against Staphylococcus aureus ATCC 25923 infected in Caenorhabditis elegans AU37 assessed as reduction in bacterial burden at 20 uM incubated for 18 hrs; format: functional; parameters: scale not given: the % may be the effect or the level left
THP-1 = assay: Cytotoxicity against human THP-1 cells assessed as reduction in cell viability at 50 uM incubated for 24 hrs by resazurin staining based analysis relative to control; format: toxicity; details: thp-1, 24 h
Enterococcus faecium = assay: Antibacterial activity against vancomycin-resistant Enterococcus faecium ATCC 700221 assessed as reduction in bacterial growth incubated for 18 to 20 hrs by broth microdilution assay; format: functional; details: time 18-20 hrs
[12] = test system: Staphylococcus epidermidis; assay: Antibacterial activity against […] Staphylococcus epidermidis RP62A assessed as reduction in bacterial growth incubated for 18 to 20 hrs by broth microdilution assay; format: functional; details: time 18-20 hrs
Enterococcus faecalis [13] = assay: Antibacterial activity against vancomycin-resistant Enterococcus faecalis ATCC 51575 assessed as reduction in bacterial growth incubated for 18 to 20 hrs by broth microdilution assay; format: functional; details: time 18-20 hrs
Cell membrane [14] = assay: Induction of cytoplasmic membrane depolarization in Staphylococcus aureus ATCC 25923 assessed as increase in fluorescence intensity at 4 times MIC measured for 30 mins by DiSC3(5) dye based fluorescence method; format: cell membranes
Pseudomonas aeruginosa = assay: Antibacterial activity against Pseudomonas aeruginosa ATCC 15442 assessed as reduction in bacterial growth incubated for 18 to 20 hrs by broth microdilution assay; format: functional; details: time 18-20 hrs
Acinetobacter baumannii = assay: Antibacterial activity against Acinetobacter baumannii NCTC 13423 assessed as reduction in bacterial growth incubated for 18 to 20 hrs by broth microdilution assay; format: functional; details: time 18-20 hrs
[15] = Cytotoxicity against human THP-1 cells assessed as reduction in cell viability incubated for 24 hrs by resazurin staining based analysis; format: toxicity
Erythrocyte = assay: Hemolytic activity in mouse RBC assessed as hemolysis at 62.5 uM incubated for 1 hr; format: toxicity, cell-based
Enterococcus faecalis [16] = assay: Antibacterial activity against Enterococcus faecalis ATCC 29212 assessed as reduction in bacterial growth incubated for 18 to 20 hrs by broth microdilution assay; format: functional; details: time 18-20 hrs
Staphylococcus aureus [17] = assay: Antibacterial activity against Staphylococcus aureus ATCC 43300 assessed as reduction in bacterial growth incubated for 18 to 20 hrs by broth microdilution assay; format: functional; details: time 18-20 hrs
[18] = Toxicity in Caenorhabditis elegans AU37 assessed as worms survival at 10 uM measured after 72 hrs
[19] = Hemolytic activity in mouse RBC assessed as hemolysis at 125 uM incubated for 1 hr; format: toxicity, cell-based, Erythrocyte; details: mouse red blood cells (erythrocytes), read-out: Activity
[20] = test system: Staphylococcus epidermidis; assay: Antibacterial activity against Staphylococcus epidermidis RP62A assessed as reduction in bacterial growth incubated for 18 to 20 hrs by broth microdilution assay; format: functional; details: time 18-20 hrs
Staphylococcus aureus [21] = assay: Drug resistance, ratio of MIC for Staphylococcus aureus ATCC 25923 after 20 days exposure to MIC for Staphylococcus aureus ATCC 25923 during first exposure; format: functional; details: time 20 day
Staphylococcus aureus [22] = assay: Drug resistance, ratio of MIC for methicillin-resistant Staphylococcus aureus after 20 days exposure to MIC for methicillin-resistant Staphylococcus aureus during first exposure; format: functional; details: time 20 day
Cell membrane [23] = assay: Induction of cell membrane permeability in Staphylococcus aureus ATCC 25923 assessed as increase in fluorescence intensity at 4 times MIC incubated for 30 mins by PI staining based analysis; format: cell membranes

| Compound | inhibition at 100 µM (Staphylococcus aureus [2]) [%] | inhibition at 100 µM (Staphylococcus aureus [4]) [%] | MIC (Staphylococcus aureus [6]) | MIC (Staphylococcus aureus [8]) [µM] | Activity (Staphylococcus aureus [10]) [%] | Activity (Staphylococcus aureus [11]) [%] | MIC (Enterococcus faecium) [µM] | MIC [12] [µM] | MIC (Enterococcus faecalis [13]) [µM] | MIC (Enterococcus faecalis [16]) [µM] | MIC (Staphylococcus aureus [17]) [µM] | MIC [20] [µM] | also measured |
| --- | --- | --- | --- | --- | --- | --- | --- | --- | --- | --- | --- | --- | --- |
| CC[C@H](C)[C@H](NC(=O)CN)C(=O)NCC(=O)N[C@@H](C)C(=O)N[C@H](C(=O)N[C@@H](CC(C)C)C(=O)N[C@@H](CCCCN)C(=O)N[C@H](C(=O)N[C@@H](CC(C)C)C(=O)N[C@H](C(=O)N[C@H](C(=O)NCC(=O)N[C@@H](CC(C)C)C(=O)N1CCC[C@H]1C(=O)N[C@@H](C)C(=O)N[C@@H](CC(C)C)C(=O)N[C@H](C(=O)N[C@@H](CO)C(=O)N[C@@H](Cc1c[nH]c2ccccc12)C(=O)N[C@H](C(=O)N[C@@H](CCCCN)C(=O)N[C@@H](CCCNC(=N)N)C(=O)N[C@@H](CCCCN)C(=O)N[C@@H](CCCNC(=N)N)C(=O)N[C@@H](CCC(N)=O)C(=O)N[C@@H](CCC(N)=O)C(N)=O)[C@@H](C)CC)[C@@H](C)CC)[C@@H](C)O)[C@@H](C)O)C(C)C)C(C)C | – | – | – | – | – | – | – | – | – | – | – | – | Activity (Cell membrane [1]): Active |
| O=C(O)CC1CCc2c1[nH]c1ccc(OCc3cnc(C4CCCC4)c(C(F)(F)F)c3)cc21 (centres undefined) | > 90 | > 90 | 20 µM and 9.2 µg/mL | – | – | – | – | – | – | – | – | – | Activity (Staphylococcus aureus [3]): 50%; inhibition at 40 µM (Staphylococcus aureus [5]): ≤ 90% |
| O=C(O)C[C@H]1CCc2c1[nH]c1ccc(OCc3ccc(C4CCCC4)c(C(F)(F)F)c3)cc21 [ETRASIMOD] | 20 | 80 | 5 µM and 2.3 µg/mL | 5 (≈ 2.29 µg/mL) | 77 | >85 | 5 (≈ 2.29 µg/mL) | 5 (≈ 2.29 µg/mL) | 10 (≈ 4.57 µg/mL) | 5 (≈ 2.29 µg/mL) | 5 (≈ 2.29 µg/mL) | 10 (≈ 4.57 µg/mL) | pKa [7]: 4; hemolysis at 1 h, 250 µM [9]: 100%; Activity (THP-1): 64%; Activity (Cell membrane [14]): inactive; MIC (Pseudomonas aeruginosa): > 200 µM; MIC (Acinetobacter baumannii): > 200 µM; CC50 at 24 h [15]: 57.7 µM; Activity (Erythrocyte): Non-Toxic; Activity [18]: Non-Toxic; hemolysis at 1 h, 125 µM [19]: 7% |
| O=C(O)c1cn(C2CC2)c2cc(N3CCNCC3)c(F)cc2c1=O [CIPROFLOXACIN] | – | – | – | – | – | – | 40 (≈ 13.3 µg/mL) | 1.25 (≈ 0.414 µg/mL) | 2.5 (≈ 0.828 µg/mL) | 2.5 (≈ 0.828 µg/mL) | 2.5 (≈ 0.828 µg/mL) | 0.625 (≈ 0.207 µg/mL) | Ratio (Staphylococcus aureus [21]): 80; Ratio (Staphylococcus aureus [22]): 170 |
| CN[C@H](CC(C)C)C(=O)N[C@H]1C(=O)N[C@@H](CC(N)=O)C(=O)N[C@H]2C(=O)N[C@H]3C(=O)N[C@H](C(=O)N[C@H](C(=O)O)c4cc(O)cc(O)c4-c4cc3ccc4O)[C@H](O)c3ccc(c(Cl)c3)Oc3cc2cc(c3O[C@@H]2O[C@H](CO)[C@@H](O)[C@H](O)[C@H]2O[C@H]2C[C@](C)(N)[C@H](O)[C@H](C)O2)Oc2ccc(cc2Cl)[C@H]1O [VANCOMYCIN] | 25 | 50 | 2.5 µM and 3.6 µg/mL | 1.25 (≈ 1.81 µg/mL) | 61 | 72 | 40 (≈ 58 µg/mL) | 2.5 (≈ 3.62 µg/mL) | 40 (≈ 58 µg/mL) | 2.5 (≈ 3.62 µg/mL) | 1.25 (≈ 1.81 µg/mL) | 2.5 (≈ 3.62 µg/mL) | Activity (Cell membrane [23]): inactive |

Source: ChEMBL document CHEMBL5532643, “Design and synthesis of etrasimod derivatives as potent antibacterial agents against Gram-positive bacteria” (Eur J Med Chem, 2024)
